Assay results as given in patent US20260191968A1, “PROTAC DEGRADERS OF MLLT1 AND/OR MLLT3” (DARK BLUE THERAPEUTICS LTD, priority 2024, published 2026).

Legend:
[1] = target: T1, MLLT1 (Homo sapiens, UniProt Q03111); assay: MLLT1 degradation assay in MV4-11 cells (JESS chemiluminescent detection), three concentrations, 24 h; format: cell-based; conditions: with respect to DMSO control
T1 construct: host or cells: MV4-11
T1 sequence (Q03111 1-559): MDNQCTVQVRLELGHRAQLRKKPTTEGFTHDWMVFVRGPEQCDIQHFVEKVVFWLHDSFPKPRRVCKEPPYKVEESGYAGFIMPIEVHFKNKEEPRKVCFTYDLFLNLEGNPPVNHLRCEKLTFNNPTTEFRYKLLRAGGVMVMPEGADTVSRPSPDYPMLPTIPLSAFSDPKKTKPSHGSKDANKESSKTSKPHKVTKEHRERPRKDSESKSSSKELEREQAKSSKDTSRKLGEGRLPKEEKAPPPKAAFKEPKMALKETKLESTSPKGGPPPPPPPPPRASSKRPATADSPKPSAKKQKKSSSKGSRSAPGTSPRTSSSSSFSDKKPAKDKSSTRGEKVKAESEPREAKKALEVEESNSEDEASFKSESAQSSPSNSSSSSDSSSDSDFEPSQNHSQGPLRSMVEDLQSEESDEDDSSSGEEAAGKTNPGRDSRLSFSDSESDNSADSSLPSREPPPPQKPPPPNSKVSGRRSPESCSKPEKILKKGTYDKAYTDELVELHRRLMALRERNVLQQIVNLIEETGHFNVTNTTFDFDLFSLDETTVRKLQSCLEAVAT
In short: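 Read-out is % MLLT1 degradation versus DMSO, from band peak areas on a JESS chemiluminescent system. Cells (MV4-11) were exposed for 24 h at 37° C to three compound levels, 10, 100 and 1000 nM, in 0.1% DMSO.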

[2] = test system: MV4-11 cells; assay: MV4-11 cellular proliferative assay, Assay Format B (CTG 2.0, 168 h); format: cell-based; conditions: Homo sapiens, 168 h (7 days), CTG 2.0, read-out: IC50 (MV4-11 cellular proliferative assay, Assay format B)
In short: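 Viability read by CellTiter-Glo 2.0 luminescence after 7-day (168 h) compound exposure of MV4-11 cells in IMDM/10% FBS. Ten 3-fold concentrations starting at 1 uM or 100 nM, 0.3% final DMSO; curves normalised to DMSO control, four-parameter fit.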

Structure (SMILES)	MLLT1% Degradation @ 0.01 μM [1]	MLLT1% Degradation @ 0.1 μM [1]	MLLT1% Degradation @ 1 μM [1]	IC50 [2]
CN1CCC[C@@H]1c1cc2cnc(NC(=O)c3ccc(N4CCN(CC5CCN(c6cccc7c6CN(C6CCC(=O)NC6=O)C7=O)CC5)CC4)nc3)cc2[nH]1 (stereo partly drawn) [Example 169, 6-(4-((1-(2-(2,6-dioxopiperidin-3-yl)-1-oxoisoindolin-4-yl)piperidin-4-yl)methyl)piperazin-1-yl)-N-(2-((R)-1-methylpyrrolidin-2-yl)-1H-pyrrolo[3,2-c]pyridin-6-yl)nicotinamide]	B (Category B: 50% ≤ B < 75% degradation)	A (Category A: A ≥ 75% degradation)	A (Category A: A ≥ 75% degradation)	≤ 0.1 µM
CN1CCC[C@@H]1c1cc2cnc(NC(=O)c3ccc(N4CCN(CC5CCN(c6ccc7c(c6)n(C)c(=O)n7C6CCC(=O)NC6=O)CC5)CC4)cc3)cc2[nH]1 (stereo partly drawn) [Example 170, 4-(4-((1-(1-(2,6-dioxopiperidin-3-yl)-3-methyl-2-oxo-2,3-dihydro-1H-benzo[d]imidazol-5-yl)piperidin-4-yl)methyl)piperazin-1-yl)-N-(2-((R)-1-methylpyrrolidin-2-yl)-1H-pyrrolo[3,2-c]pyridin-6-yl)benzamide]	A (Category A: A ≥ 75% degradation)	A (Category A: A ≥ 75% degradation)	A (Category A: A ≥ 75% degradation)	≤ 0.1 µM
CN1CCC[C@@H]1c1cc2cnc(NC(=O)c3ccc(CCC4CCN(c5cccc6c5CN(C5CCC(=O)NC5=O)C6=O)CC4)cc3)cc2[nH]1 (stereo partly drawn) [Example 177, 4-(2-(1-(2-(2,6-dioxopiperidin-3-yl)-1-oxoisoindolin-4-yl)piperidin-4-yl)ethyl)-N-(2-((R)-1-methylpyrrolidin-2-yl)-1H-pyrrolo[3,2-c]pyridin-6-yl)benzamide]	A (Category A: A ≥ 75% degradation)	A (Category A: A ≥ 75% degradation)	A (Category A: A ≥ 75% degradation)	≤ 0.1 µM
CN1CCC[C@@H]1c1cc2cnc(NC(=O)c3cnc(N4CCC(C#Cc5cccc6c5CN(C5CCC(=O)NC5=O)C6=O)CC4)cn3)cc2[nH]1 (stereo partly drawn) [Example 186, 5-(4-((2-(2,6-dioxopiperidin-3-yl)-1-oxoisoindolin-4-yl)ethynyl)piperidin-1-yl)-N-(2-((R)-1-methylpyrrolidin-2-yl)-1H-pyrrolo[3,2-c]pyridin-6-yl)pyrazine-2-carboxamide]	B (Category B: 50% ≤ B < 75% degradation)	A (Category A: A ≥ 75% degradation)	B (Category B: 50% ≤ B < 75% degradation)	≤ 0.1 µM
CN1CCC[C@@H]1c1[nH]c2cc(NC(=O)c3ccc(OCCC4CCN(c5cccc6c5CN(C5CCC(=O)NC5=O)C6=O)CC4)cc3F)ncc2c1Cl (stereo partly drawn) [Example 190, N-(3-chloro-2-((R)-1-methylpyrrolidin-2-yl)-1H-pyrrolo[3,2-c]pyridin-6-yl)-4-(2-(1-(2-(2,6-dioxopiperidin-3-yl)-1-oxoisoindolin-4-yl)piperidin-4-yl)ethoxy)-2-fluorobenzamide]	B (Category B: 50% ≤ B < 75% degradation)	A (Category A: A ≥ 75% degradation)	A (Category A: A ≥ 75% degradation)	≤ 0.1 µM
CN1CCC[C@@H]1c1[nH]c2cc(NC(=O)c3ccc(N4CCC(OCC5CCN(c6cccc7c6CN(C6CCC(=O)NC6=O)C7=O)CC5)CC4)nc3)ncc2c1Cl (stereo partly drawn) [Example 191, N-(3-chloro-2-((R)-1-methylpyrrolidin-2-yl)-1H-pyrrolo[3,2-c]pyridin-6-yl)-6-(4-((1-(2-(2,6-dioxopiperidin-3-yl)-1-oxoisoindolin-4-yl)piperidin-4-yl)methoxy)piperidin-1-yl)nicotinamide]	A (Category A: A ≥ 75% degradation)	A (Category A: A ≥ 75% degradation)	A (Category A: A ≥ 75% degradation)	≤ 0.1 µM
CN1CCC[C@@H]1c1cc2cnc(NC(=O)c3ccc(N4CCN(CCC5CCN(c6cccc7c6CN(C6CCC(=O)NC6=O)C7=O)CC5)CC4)nc3)cc2[nH]1 (stereo partly drawn) [Example 193, 6-(4-(2-(1-(2-(2,6-dioxopiperidin-3-yl)-1-oxoisoindolin-4-yl)piperidin-4-yl)ethyl)piperazin-1-yl)-N-(2-((R)-1-methylpyrrolidin-2-yl)-1H-pyrrolo[3,2-c]pyridin-6-yl)nicotinamide]	A (Category A: A ≥ 75% degradation)	A (Category A: A ≥ 75% degradation)	B (Category B: 50% ≤ B < 75% degradation)	≤ 0.1 µM

More lines, now with the values ahead:

MLLT1% Degradation @ 0.01 μM [1]	MLLT1% Degradation @ 0.1 μM [1]	MLLT1% Degradation @ 1 μM [1]	IC50 [2]	Structure (SMILES)
A (Category A: A ≥ 75% degradation)	A (Category A: A ≥ 75% degradation)	A (Category A: A ≥ 75% degradation)	≤ 0.1 µM	CN1CCC[C@@H]1c1cc2cnc(NC(=O)c3ccc(OCC4CCN(c5cccc6c5CN(C5CCC(=O)NC5=O)C6=O)CC4)cc3)cc2[nH]1 (stereo partly drawn) [Example 159, 4-((1-(2-(2,6-dioxopiperidin-3-yl)-1-oxoisoindolin-4-yl)piperidin-4-yl)methoxy)-N-(2-((R)-1-methylpyrrolidin-2-yl)-1H-pyrrolo[3,2-c]pyridin-6-yl)benzamide]
A (Category A: A ≥ 75% degradation)	A (Category A: A ≥ 75% degradation)	A (Category A: A ≥ 75% degradation)	≤ 0.1 µM	C[C@@H]1CN(CC2CCN(c3cccc4c3CN(C3CCC(=O)NC3=O)C4=O)CC2)CCN1c1ccc(C(=O)Nc2cc3[nH]c([C@H]4CCCN4C)cc3cn2)cn1 (stereo partly drawn) [Example 163, 6-((2R)-4-((1-(2-(2,6-dioxopiperidin-3-yl)-1-oxoisoindolin-4-yl)piperidin-4-yl)methyl)-2-methylpiperazin-1-yl)-N-(2-((R)-1-methylpyrrolidin-2-yl)-1H-pyrrolo[3,2-c]pyridin-6-yl)nicotinamide]
A (Category A: A ≥ 75% degradation)	A (Category A: A ≥ 75% degradation)	A (Category A: A ≥ 75% degradation)	≤ 0.1 µM	CN1CCC[C@@H]1c1cc2cnc(NC(=O)c3ccc(OCCN4CCC5(CC4)CCN(c4ccc6c(c4)CN(C4CCC(=O)NC4=O)C6=O)CC5)cc3)cc2[nH]1 (stereo partly drawn) [Example 164, 4-(2-(9-(2-(2,6-dioxopiperidin-3-yl)-1-oxoisoindolin-5-yl)-3,9-diazaspiro[5.5]undecan-3-yl)ethoxy)-N-(2-((R)-1-methylpyrrolidin-2-yl)-1H-pyrrolo[3,2-c]pyridin-6-yl)benzamide]
A (Category A: A ≥ 75% degradation)	A (Category A: A ≥ 75% degradation)	A (Category A: A ≥ 75% degradation)	≤ 0.1 µM	CN1CCC[C@@H]1c1cc2cnc(NC(=O)c3ccc(OCCN4CCC5(CC4)CCN(c4cccc6c4CN(C4CCC(=O)NC4=O)C6=O)CC5)cc3)cc2[nH]1 (stereo partly drawn) [Example 165, 4-(2-(9-(2-(2,6-dioxopiperidin-3-yl)-1-oxoisoindolin-4-yl)-3,9-diazaspiro[5.5]undecan-3-yl)ethoxy)-N-(2-((R)-1-methylpyrrolidin-2-yl)-1H-pyrrolo[3,2-c]pyridin-6-yl)benzamide]
A (Category A: A ≥ 75% degradation)	A (Category A: A ≥ 75% degradation)	A (Category A: A ≥ 75% degradation)	≤ 0.1 µM	CN1CCC[C@@H]1c1cc2cnc(NC(=O)c3ccc(C4CCN(CC5CCN(c6cccc7c6CN(C6CCC(=O)NC6=O)C7=O)CC5)CC4)cc3)cc2[nH]1 (stereo partly drawn) [Example 167, 4-(1-((1-(2-(2,6-dioxopiperidin-3-yl)-1-oxoisoindolin-4-yl)piperidin-4-yl)methyl)piperidin-4-yl)-N-(2-((R)-1-methylpyrrolidin-2-yl)-1H-pyrrolo[3,2-c]pyridin-6-yl)benzamide]
A (Category A: A ≥ 75% degradation)	A (Category A: A ≥ 75% degradation)	A (Category A: A ≥ 75% degradation)	≤ 0.1 µM	CN1CCC[C@@H]1c1cc2cnc(NC(=O)c3ccc(N4CCC(CN5CCN(c6cccc7c6CN(C6CCC(=O)NC6=O)C7=O)CC5)CC4)nc3)cc2[nH]1 (stereo partly drawn) [Example 168, 6-(4-((4-(2-(2,6-dioxopiperidin-3-yl)-1-oxoisoindolin-4-yl)piperazin-1-yl)methyl)piperidin-1-yl)-N-(2-((R)-1-methylpyrrolidin-2-yl)-1H-pyrrolo[3,2-c]pyridin-6-yl)nicotinamide]
